Measurements reported in PubChem BioAssay (NCI).
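How tested: cells in 96-well plates exposed to compound for 48 hours at five concentrations. GI50: concentration for 50% inhibition of growth. TGI: concentration producing complete growth inhibition.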

Experiments:
Assay in all cases: NCI-60 cell line screen, 48 h
[1] = system: EKVX NSCLC
[2] = system: UACC-257 melanoma
[3] = system: HL-60(TB) leukemia
[4] = system: HCT-15 colon
[5] = system: NCI-H522 lung
[6] = system: RXF 393 renal
[7] = system: SF-268 CNS
[8] = system: CAKI-1 renal
[9] = system: T-47D breast
[10] = system: SK-OV-3 ovarian
[11] = system: NCI/ADR-RES ovarian
[12] = system: SK-MEL-2 melanoma
[13] = system: SK-MEL-5 melanoma
[14] = system: SN12C renal
[15] = system: OVCAR-3 ovarian
[16] = system: OVCAR-8 ovarian
[17] = system: SF-539 CNS
[18] = system: PC-3 prostate
[19] = system: OVCAR-4 ovarian
[20] = system: MDA-MB-231 breast
[21] = system: 786-0 renal
[22] = system: HCC-2998 colon
[23] = system: COLO 205 colon
[24] = system: MDA-MB-435
[25] = system: HOP-62 NSCLC
[26] = system: ACHN renal
[27] = system: OVCAR-5 ovarian
[28] = system: HOP-92 NSCLC
[29] = system: DU-145 prostate
[30] = system: KM12 colon
[31] = system: HCT-116 colon
[32] = system: LOX IMVI melanoma
[33] = system: M14 melanoma
[34] = system: UACC-62 melanoma
[35] = system: RPMI-8226 leukemia
[36] = system: U251 CNS
[37] = system: NCI-H460 lung
[38] = system: SF-295 CNS
[39] = system: NCI-H23 lung
[40] = system: SK-MEL-28 melanoma
[41] = system: SNB-19 CNS
[42] = system: K-562 leukemia
[43] = system: TK-10 renal
[44] = system: SW-620 colon
[45] = system: BT-549 breast
[46] = system: IGROV1 ovarian
[47] = system: SR leukemia
[48] = system: HS 578T breast
[49] = system: A549 NSCLC
[50] = system: MCF7 breast
[51] = system: UO-31 renal
[52] = system: CCRF-CEM leukemia
[53] = system: HT29 colon
[54] = system: A498 renal
[55] = system: NCI-H226 lung
[56] = system: MOLT-4 leukemia
[57] = system: MALME-3M melanoma
[58] = system: SNB-75 CNS

SMILES: CCCCCCC#Cc1ccccc1C#CCO
- GI50 [1]: 21.9 µM
- TGI [1]: 50.6 µM
- GI50 [2]: 26.5 µM
- TGI [2]: 62.7 µM
- GI50 [3]: 38.7 µM
- TGI [3]: > 100 µM
- GI50 [4]: 35.9 µM
- TGI [4]: > 100 µM
- GI50 [5]: 18.7 µM
- TGI [5]: 38.6 µM
- GI50 [6]: 16.6 µM
- TGI [6]: 32.9 µM
- GI50 [7]: 30.6 µM
- TGI [7]: 65.2 µM
- GI50 [8]: 14.6 µM
- TGI [8]: 33.2 µM
- GI50 [9]: 16.3 µM
- TGI [9]: 35.1 µM
- GI50 [10]: 18.4 µM
- TGI [10]: 34.4 µM
- GI50 [11]: 18.7 µM
- TGI [11]: 34.4 µM
- GI50 [12]: 18.9 µM
- TGI [12]: 39.8 µM
- GI50 [13]: 16.8 µM
- TGI [13]: 30.8 µM
- GI50 [14]: 19.4 µM
- TGI [14]: 39.7 µM
- GI50 [15]: 14.5 µM
- TGI [15]: 27.6 µM
- GI50 [16]: 21.7 µM
- TGI [16]: 46.8 µM
- GI50 [17]: 19 µM
- TGI [17]: 35.6 µM
- GI50 [18]: 25.4 µM
- TGI [18]: 95.2 µM
- GI50 [19]: 24.5 µM
- TGI [19]: 81.6 µM
- GI50 [20]: > 100 µM
- TGI [20]: > 100 µM
- GI50 [21]: 31.3 µM
- TGI [21]: 96.1 µM
- GI50 [22]: 23.7 µM
- TGI [22]: 42.6 µM
- GI50 [23]: 17.2 µM
- TGI [23]: 34 µM
- GI50 [24]: 18.4 µM
- TGI [24]: 37.2 µM
- GI50 [25]: 22.4 µM
- TGI [25]: 48.3 µM
- GI50 [26]: 18.5 µM
- TGI [26]: 39 µM
- GI50 [27]: 38.7 µM
- TGI [27]: > 100 µM
- GI50 [28]: 13.8 µM
- TGI [28]: 26.7 µM
- GI50 [29]: 17.7 µM
- TGI [29]: 36.3 µM
- GI50 [30]: 18.6 µM
- TGI [30]: 37.6 µM
- GI50 [31]: 23.4 µM
- TGI [31]: 49.6 µM
- GI50 [32]: 20.3 µM
- TGI [32]: 49.3 µM
- GI50 [33]: 28.4 µM
- TGI [33]: 74.9 µM
- GI50 [34]: 19.1 µM
- TGI [34]: 43.6 µM
- GI50 [35]: 15 µM
- TGI [35]: 31.4 µM
- GI50 [36]: 16.4 µM
- TGI [36]: 34.6 µM
- GI50 [37]: 32.8 µM
- TGI [37]: > 100 µM
- GI50 [38]: 16.2 µM
- TGI [38]: 30.2 µM
- GI50 [39]: 3.69 µM
- TGI [39]: 9.74 µM
- GI50 [40]: 18 µM
- TGI [40]: 45.3 µM
- GI50 [41]: 16.3 µM
- TGI [41]: 31.7 µM
- GI50 [42]: 28.8 µM
- TGI [42]: > 100 µM
- GI50 [43]: 22.6 µM
- TGI [43]: 61.4 µM
- GI50 [44]: 20.1 µM
- TGI [44]: 38 µM
- GI50 [45]: 17 µM
- TGI [45]: 32.9 µM
- GI50 [46]: 18 µM
- TGI [46]: 43.3 µM
- GI50 [47]: 39.9 µM
- TGI [47]: > 100 µM
- GI50 [48]: 17.2 µM
- TGI [48]: 39.4 µM
- GI50 [49]: 20.7 µM
- TGI [49]: 49 µM
- GI50 [50]: 32.8 µM
- TGI [50]: > 100 µM
- GI50 [51]: 18.8 µM
- TGI [51]: 38.6 µM

SMILES: COc1cc2c3c(n(CCCNCC(OC)OC)c(=O)c2cc1OC)-c1cc2c(cc1C3=O)OCO2
- GI50 [1]: 15.7 µM
- TGI [1]: > 57.3 µM
- GI50 [2]: 33.3 µM
- TGI [2]: > 89.2 µM
- GI50 [3]: 2.6 µM
- TGI [3]: > 28.3 µM
- GI50 [4]: 17.3 µM
- TGI [4]: > 100 µM
- GI50 [5]: 18.2 µM
- TGI [5]: > 100 µM
- GI50 [52]: < 0.01 µM
- TGI [52]: 1.8 µM
- GI50 [6]: 3.84 µM
- TGI [6]: 21.6 µM
- GI50 [7]: 1.05 µM
- TGI [7]: > 55.1 µM
- GI50 [8]: 0.219 µM
- TGI [8]: 17.2 µM
- GI50 [53]: 4.99 µM
- TGI [53]: 32.2 µM
- GI50 [10]: 22.8 µM
- TGI [10]: > 100 µM
- GI50 [11]: 0.338 µM
- TGI [11]: 29.3 µM
- GI50 [12]: > 49.1 µM
- TGI [12]: > 73.5 µM
- GI50 [15]: 3.81 µM
- TGI [15]: 32.7 µM
- GI50 [54]: 14 µM
- TGI [54]: 33.9 µM
- GI50 [16]: 8.31 µM
- TGI [16]: 38.4 µM
- GI50 [17]: 2.42 µM
- TGI [17]: 24.9 µM
- GI50 [18]: 2.35 µM
- TGI [18]: 40.6 µM
- GI50 [19]: 20.1 µM
- TGI [19]: 42.7 µM
- GI50 [20]: 3.09 µM
- TGI [20]: 20 µM
- GI50 [21]: 0.274 µM
- TGI [21]: 8.75 µM
- GI50 [23]: 14 µM
- TGI [23]: > 61.1 µM
- GI50 [55]: 6.63 µM
- TGI [55]: 42.5 µM
- GI50 [56]: < 0.01 µM
- TGI [56]: 1.14 µM
- GI50 [24]: 10.4 µM
- TGI [24]: 97 µM
- GI50 [25]: 0.126 µM
- TGI [25]: 4.66 µM
- GI50 [26]: 5.34 µM
- TGI [26]: > 37.4 µM
- GI50 [27]: 16.9 µM
- TGI [27]: 37.8 µM
- GI50 [28]: 1.45 µM
- TGI [28]: 19.1 µM
- GI50 [29]: 0.399 µM
- TGI [29]: 13.7 µM
- GI50 [57]: 21 µM
- TGI [57]: 47.6 µM
- GI50 [30]: 2.14 µM
- TGI [30]: 34.6 µM
- GI50 [31]: 0.0172 µM
- TGI [31]: 1.31 µM
- GI50 [32]: 1.46 µM
- TGI [32]: > 29.8 µM
- GI50 [33]: 0.345 µM
- TGI [33]: > 37.2 µM
- GI50 [34]: 1.63 µM
- TGI [34]: 22.6 µM
- GI50 [35]: < 0.01 µM
- TGI [35]: 0.197 µM
- GI50 [36]: 4.32 µM
- TGI [36]: > 48.6 µM
- GI50 [37]: 0.0972 µM
- TGI [37]: 20.5 µM
- GI50 [38]: 0.303 µM
- TGI [38]: 49.4 µM
- GI50 [39]: 1.84 µM
- TGI [39]: 29.9 µM
- GI50 [40]: 18.4 µM
- TGI [40]: 36.3 µM
- GI50 [41]: 10.2 µM
- TGI [41]: > 100 µM
- GI50 [58]: 17 µM
- TGI [58]: > 59.1 µM
- GI50 [42]: 0.91 µM
- TGI [42]: > 46.8 µM
- GI50 [43]: 11.9 µM
- TGI [43]: 47.8 µM
- GI50 [44]: 2.05 µM
- TGI [44]: 24.2 µM
- GI50 [45]: 4.06 µM
- TGI [45]: > 29.6 µM
- GI50 [46]: 10.3 µM
- TGI [46]: > 74.4 µM
- GI50 [47]: < 0.01 µM
- GI50 [48]: 10.4 µM
- TGI [48]: > 29.3 µM
- GI50 [49]: 11.2 µM
- TGI [49]: 37.9 µM
- GI50 [50]: < 0.0315 µM
- TGI [50]: > 48.6 µM
- GI50 [51]: 2.13 µM
- TGI [51]: 22.5 µM
